Measurements reported in the NIST ThermoML archive (doi:10.1021/je0202174).
± gives the expanded uncertainty stated by the source.

Settings: Liquid

Row | Structure (SMILES) | viscosity (253.15 K) [mPa·s] | viscosity (258.15 K) [mPa·s] | viscosity (263.15 K) [mPa·s] | viscosity (268.15 K) [mPa·s] | viscosity (273.15 K) [mPa·s] | viscosity (278.15 K) [mPa·s] | viscosity (283.15 K) [mPa·s] | viscosity (288.15 K) [mPa·s] | viscosity (293.15 K) [mPa·s] | viscosity (298.15 K) [mPa·s] | viscosity (303.15 K) [mPa·s] | viscosity (308.15 K) [mPa·s] | viscosity (313.15 K) [mPa·s] | viscosity (318.15 K) [mPa·s] | viscosity (323.15 K) [mPa·s] | viscosity (328.15 K) [mPa·s] | viscosity (333.15 K) [mPa·s] | viscosity (338.15 K) [mPa·s] | viscosity (343.15 K) [mPa·s] | viscosity (348.15 K) [mPa·s] | other results
1 | CCC(C)C [2-methylbutane] | 0.3893 ± 0.0075 | 0.3661 ± 0.0072 | 0.3439 ± 0.0069 | 0.3201 ± 0.0065 | 0.3023 ± 0.0063 | 0.2859 ± 0.0061 | 0.2703 ± 0.0058 | 0.2547 ± 0.0056 | 0.2399 ± 0.0054 | 0.2289 ± 0.0052 | 0.2144 ± 0.005 | 0.2023 ± 0.0049 | 0.191 ± 0.0047 | 0.1813 ± 0.0046 | 0.1724 ± 0.0044 | 0.1611 ± 0.0043 | 0.1543 ± 0.0042 | 0.148 ± 0.0041 | 0.1411 ± 0.004 | 0.1332 ± 0.0039 | viscosity (353.15 K): 0.1287 ± 0.0038 mPa·s
2 | C1CCCC1 [cyclopentane] | 0.7268 ± 0.012 | 0.6786 ± 0.011 | 0.6347 ± 0.011 | 0.593 ± 0.01 | 0.5567 ± 0.0098 | 0.5224 ± 0.0093 | 0.4922 ± 0.0089 | 0.4646 ± 0.0085 | 0.4382 ± 0.0081 | 0.4148 ± 0.0078 | 0.3923 ± 0.0075 | 0.3714 ± 0.0072 | 0.3521 ± 0.0069 | 0.335 ± 0.0067 | 0.319 ± 0.0065 | 0.3048 ± 0.0063 | 0.2912 ± 0.0061 | 0.2793 ± 0.0059 | 0.269 ± 0.0058 | 0.259 ± 0.0056 | viscosity (353.15 K): 0.2502 ± 0.0055 mPa·s
